Assay results taken from the NIST ThermoML archive (doi:10.1016/j.tca.2015.04.021).
± gives the expanded uncertainty stated by the source.

Assay: molar enthalpy of vaporization or sublimation
Details: Liquid, TGA

`Cn1cc[n+](CCC(F)(F)C(F)(F)F)c1.O=S(=O)([N-]S(=O)(=O)C(F)(F)F)C(F)(F)F` showed a molar enthalpy (527.7 K) of 27.2 ± 0.621 kcal/mol.

For `Cn1cc[n+](CCC(F)(F)C(F)(F)C(F)(F)C(F)(F)C(F)(F)C(F)(F)C(F)(F)C(F)(F)F)c1.O=S(=O)([N-]S(=O)(=O)C(F)(F)F)C(F)(F)F`, the molar enthalpy (531.8 K) was 30.5 ± 0.669 kcal/mol.

`Cn1cc[n+](CCC(F)(F)C(F)(F)C(F)(F)C(F)(F)C(F)(F)C(F)(F)F)c1.O=S(=O)([N-]S(=O)(=O)C(F)(F)F)C(F)(F)F` showed a molar enthalpy (532.3 K) of 30.1 ± 0.669 kcal/mol.
